One series relates to Aphidius rhopalosiphi. The series can be described thus: LR50; higher = less toxic. The conditions noted are these: acute; duration: 48 hours; mortality.
The test system of the next series is Typhlodromus pyri. The series can be described thus: LR50; higher = less toxic. The settings on record: acute; duration: 7 days; mortality.
For the next series, the system named is Daphnia magna. The conditions noted are these: chronic/long-term; duration: 21 days; mobility.
In another series the test system is Cyprinodon variegatus. The conditions noted are these: acute; duration: 96 hours; mortality.
Another series relates to Tagia sp. The settings on record: acute; duration: 14 days; mortality.
In the next series the test system is Pimephales promelas. The settings on record: chronic/long-term; duration: 33 days; other.
The next series deals with Anas platyrhynchos. The conditions noted are these: reproductive.
A further series relates to Apis mellifera. The conditions noted are these: acute, duration: 48 hours, mortality.
For another series, the system named is Canidae. The conditions noted are these: chronic; duration: 52 weeks; oral; Dog Other; organ weight.
Another series has as its system Colinus virginianus. The conditions noted are these: acute, oral, mortality.
A further series deals with Bibionidae. The conditions noted are these: chronic/long-term; duration: 21 days; other.

Structures are written as SMILES. In brackets after ≈: the same amount, converted by molar mass. Some results are limits rather than exact numbers.

Turning to `CCOC(=O)OC1=C(c2cc(C)ccc2C)C(=O)NC12CCC(OC)CC2` (stereo unspecified) [Spirotetramat], the LR50 with Aphidius rhopalosiphi is 115 g/ha; in the series with Typhlodromus pyri it was 0.333 g/ha. In addition, the results for the NOEC in the series with Daphnia magna, in the series with Pimephales promelas and in the series on Bibionidae were 2 mg/L, 0.534 mg/L and 0.1 mg/L, respectively. In addition, the results for the LC50 in the series with Cyprinodon variegatus, with Tagia sp. and in the series with Colinus virginianus (diet) were 1.96 µg/mL (≈ 5.25 µM), over 1000 mg/kg and over 475 mg/kg-day, respectively. Moreover, the no-observed-adverse-effect level (NOAEL) in the series with Anas platyrhynchos turned out to be 4 mg/kg-day; in the series with Rattus norvegicus (acute, clinical signs), 100 mg/kg-day; with Rattus norvegicus (reproduction developmental, body weight) it was 70 mg/kg-day; in the series with Canidae, 5 mg/kg-day. For the same compound, the LD50 is over 2000 mg/kg-day in the series on Rattus norvegicus (acute, oral, mortality); over 100 µg/piece with Apis mellifera (dermal); over 107 µg/piece in the series with Apis mellifera (oral, unspecified); over 2000 mg/kg-day in the series on Colinus virginianus.

One may read the NOAEL as the highest dose or exposure tested at which no adverse effect was seen.

For the origin of these results see EPA's ToxValDB 9.5 (doi:10.2903/j.efsa.2013.3243).
